Assay results as given in paper PMC2949700, “Identification of the full set of Listeria monocytogenes penicillin-binding proteins and characterization of PBPD2 (Lmo2812)” (BMC Microbiology, 2010).
In brackets after ≈: the same amount, converted by molar mass. Read-outs that look alike come from different tables or passages of the source.

Key:
L. monocytogenes EGD = assay: Microdilution MIC test; assay type: cell-based, Listeria monocytogenes
Method: (§1) To determine the effect of these mutations on cell morphology, the strains EGD, KD2812 and DA07 were analyzed by scanning electron microscopy (SEM). […] At 30°C the average cell length compared to strain EGD was increased by 38.5% in strain KD2812 and by 44.8% in the double mutant strain. The respective values at 37°C were 37.5% and 43%. […] The variant cells were characteristically curved with a bend at either one or both ends and subterminal constrictions. The number of cells with altered morphology was increased as the growth temperature was raised (Figure 3; b, e, h). Cell bending was more pronounced in the population of AD07 mutant cells (Figure 3; c, f, i). […] Similar results were found for a mutant of L. monocytogenes lacking PBP5 (PBPD1) examined in a previous study.
(§2) Microdilution tests were performed using cation-adjusted Mueller-Hinton broth (CAMHB) supplemented with 5% lysed horse blood containing two-fold dilutions of the antimicrobial agents. These mixtures were dispensed in 100 μl aliquots into plastic 96-well plates. To prepare inocula, a single colony of each strain from a TSBYE plate was transferred into 10 ml of the same medium and incubated for 24 h at 37°C. These cultures were serially diluted in CAMHB to a concentration of 10^5 cfu/ml and 100 μl aliquots were added to the microdilution plates. The plates were incubated for 18-20 h at 37°C before the reading of the MIC endpoints. The MIC was the lowest antibiotic concentration at which visible growth was inhibited.

[1] = system: L. monocytogenes AD07 (Δlmo2812 Δlmo2754); assay: Microdilution MIC test; assay type: cell-based, Listeria monocytogenes
Method: as §1, §2

[2] = system: L. monocytogenes KD2812 (Δlmo2812); assay: Microdilution MIC test; assay type: cell-based, Listeria monocytogenes
Method: as §1, §2

[3] = target: purified recombinant Lmo2812 (PBPD2) (Listeria monocytogenes, UniProt Q8Y3M3); assay: Fluorescent antibiotic binding assay, purified recombinant protein; details: purified recombinant Lmo2812; antibiotic concentration for 50% of maximum binding; read-out: apparent affinity constant (Kd50)
Chain of purified recombinant Lmo2812 (PBPD2) (Q8Y3M3 entry or part of it): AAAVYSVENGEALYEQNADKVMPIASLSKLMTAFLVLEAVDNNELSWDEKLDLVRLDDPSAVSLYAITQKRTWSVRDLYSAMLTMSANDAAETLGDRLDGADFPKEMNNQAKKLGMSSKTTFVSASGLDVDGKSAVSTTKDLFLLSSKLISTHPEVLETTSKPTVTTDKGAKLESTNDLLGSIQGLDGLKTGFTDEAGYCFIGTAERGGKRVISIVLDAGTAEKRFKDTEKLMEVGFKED
Method: The purified protein was incubated with different concentrations of Boc-FL (0.25, 0.5, 2.5, 5 and 10 μM). […] Lmo2812 was the major band on gels, with a slower migrating minor band thought to represent a dimeric form (Figure 2).
Figure 2 Purified recombinant L. monocytogenes Lmo2812 (PBPD2) identified with Boc-FL. Samples of purified recombinant Lmo2812 (10 μg) were labeled with Boc-FL at concentrations of 0 (1), 0.25 (2), 0.5 (3), 2.5 (4), 5 (5) and 10 μM (6). Labeled bands were detected directly on the gel, quantified and their molecular mass estimated. The affinity of the bands for Boc-FL (Kd50) was estimated from their fluorescence as a function of the concentration of Boc-FL. The names of the bands are indicated on the right, and the positions of the molecular weight markers are shown on the left.
The β-lactam binding capacity of Lmo2812 was evaluated with three different fluorescent antibiotics: Boc-FL, Boc-650 and Amp-430.
Total whole cell proteins or purified recombinant protein resuspended in 50 mM NaPi buffer, pH 7.0 were labeled by incubation at 37°C for 30 min with different concentrations of Boc-FL (Molecular Probes), Boc-650 (Molecular Probes) or Amp-430 (prepared in the laboratory by coupling ampicillin to Alexa-430), and then separated on a 10% acrylamide, 3.3% cross-linkage SDS-PAGE gel. To avoid degradation of the fluorescent β-lactam antibiotics by β-lactamases, samples were incubated at 37°C with clavulanic acid at a final concentration of 10 μg/ml or EDTA at a final concentration of 10 mM for 30 min before labeling, where appropriate. Competition experiments were carried out by preincubation of the samples with ampicillin (100 μg/ml) for 30 min at 37°C, before adding the fluorescent antibiotic. The samples were then further incubated for 30 min at 37°C. PBPs were visualized directly on the polyacryloamide gel by fluorescence using a Typhoon 9410 imager (Amersham Biosciences) with excitation wavelengths of 588, 633 or 457 nm and emission filters 520BP40, 670BP30 or 555BP20 for Boc-FL, Boc-650 and Amp-430, respectively. […]

recombinant Lmo2812 = assay: Enzymatic activity assay with natural muropeptides; assay type: biochemical, Listeria monocytogenes; details: for M4 (%) / M5 (%): 120 min at 37°C, HPLC
Method: No such cleavage occurred in the absence of Lmo2812.
The pH-dependence of the activity of Lmo2812 against monomeric muropepeptide M5 was determined in the pH range of 4.5 to 7.0. The highest activity was detected in assays performed at pH 7.0 in a Tris-Mg buffer, where half of the substrate was converted to the tetrapeptide (Table 3).
Whole total peptidoglycan and purified muropeptides were isolated from E. coli cells as described previously. A 10 μg sample of recombinant Lmo2812 was mixed with 5 μg of M5 (NAcGlc-NAcMur-pentapeptide) or D45 (NAcGlc-NAcMur-tetrapeptide-NAcGlc-NAcMur-pentapeptide) in a volume of 30 μl using three different buffer conditions: pH 4.5 (50 mM NaPi, 1% methanol, pH 4.5), pH 7.0 (30 mM Tris-HCl, 3 mM MgCl2, pH 7.0), or NaPi (50 mM sodium phosphate buffer, pH 7.0). These mixtures were incubated at 37°C for 120 min. Control samples of M5 or D45 without Lmo2812 were similarly incubated in 30 mM Tris-HCl buffer, 3 mM MgCl2, pH 7.0. The samples were analyzed by HPLC using a C18 reversed phase column and a methanol gradient to separate the peaks.

[4] = system: purified recombinant Lmo2812; assay: DD-carboxypeptidase activity assay with synthetic tripeptide; assay type: biochemical, Listeria monocytogenes; details: substrate up to 12.5 mM, 40 μg of purified protein
Method: The maximum activity was 0.75 pmoles/μg min, indicating low DD-carboxypeptidase activity under these assay conditions.
A modification of the method of Frere et al. was used for DD-carboxypeptidase activity measurement. A reaction mixture comprised of 15 μl of Nα,Nε-Diacetyl-Lys-D-Ala-D-Ala (25 mM), 3 μl of buffer (300 mM Tris-HCl pH 7.5) and 12 μl of purified recombinant Lmo2812 was prepared, incubated at 37°C and samples were taken every 10 min for 1 h. To these samples, 5 μl of 10 mg/ml (in methanol) o-Dianisidine (SIGMA) and 70 μl of enzyme/coenzyme mix (flavinadenine dinucleotide (FAD), Peroxidase and D-Amino acid Oxidase) were added. These mixtures were incubated at 37°C for 5 min, then 400 μl of methanol-water (v/v) was added and incubation continued at 37°C for another 2 min. The absorbance of each reaction was immediately read at 460 nm. A number of controls were performed: reactions containing only recombinant Lmo2812 fractions, reactions lacking recombinant Lmo2812 to establish the level of natural degradation of the tripeptide for at each sampling point, and standard samples containing known amounts of D-alanine.

[5] = Listeria monocytogenes, EGD wild-type, CAMHB with 5% lysed horse blood, 18-20 h at 37°C, read-out: MIC
[6] = AD07 double mutant, CAMHB with 5% lysed horse blood, 18-20 h at 37°C
[7] = EGD wild-type, CAMHB with 5% lysed horse blood, 18-20 h at 37°C
[8] = KD2812 mutant, CAMHB with 5% lysed horse blood, 18-20 h at 37°C

## CC(=O)OCC1=C(C(=O)O)N2C(=O)[C@@H](NC(=O)Cc3cccs3)[C@H]2SC1 [cefalotin]
L. monocytogenes EGD; [5]
  MIC: 2 µg/mL (≈ 5.04 µM)

## CO/N=C(\C(=O)N[C@@H]1C(=O)N2C(C(=O)O)=C(COC(C)=O)CS[C@H]12)c1csc(N)n1 [cefotaxim]
[1]; [6]
  MIC: 6 µg/mL (≈ 13.2 µM)
L. monocytogenes EGD; [7]
  MIC: 6 µg/mL (≈ 13.2 µM)
[2]; [8]
  MIC: 6 µg/mL (≈ 13.2 µM)

## CO[C@@]1(NC(=O)Cc2cccs2)C(=O)N2C(C(=O)O)=C(COC(N)=O)CS[C@@H]21 [cefoxitin]
[1]; Listeria monocytogenes
  MIC: 32 µg/mL (≈ 74.9 µM)
L. monocytogenes EGD; Listeria monocytogenes
  MIC: 32 µg/mL (≈ 74.9 µM)
[2]; Listeria monocytogenes
  MIC: 32 µg/mL (≈ 74.9 µM)

## CC(C)(O/N=C(\C(=O)N[C@@H]1C(=O)N2C(C(=O)[O-])=C(C[n+]3ccccc3)CS[C@H]12)c1csc(N)n1)C(=O)O [ceftazidime]
[1]; Listeria monocytogenes
  MIC: 256 µg/mL (≈ 468 µM)
L. monocytogenes EGD; Listeria monocytogenes
  MIC: 256 µg/mL (≈ 468 µM)
[2]; Listeria monocytogenes
  MIC: 256 µg/mL (≈ 468 µM)

## Cc1onc(-c2ccccc2)c1C(=O)N[C@@H]1C(=O)N2[C@@H]1SC(C)(C)[C@@H]2C(=O)O [oxacillin]
[1]; Listeria monocytogenes
  MIC: 1.25 µg/mL (≈ 3.11 µM)
L. monocytogenes EGD; [5]
  MIC: 2.5 µg/mL (≈ 6.23 µM)

## CCN1CCN(C(=O)N[C@@H](C(=O)N[C@@H]2C(=O)N3[C@@H]2SC(C)(C)[C@@H]3C(=O)O)c2ccccc2)C(=O)C1=O [piperacillin]
[1]; Listeria monocytogenes
  MIC: 1.25 µg/mL (≈ 2.42 µM)
L. monocytogenes EGD; Listeria monocytogenes
  MIC: 1.25 µg/mL (≈ 2.42 µM)
[2]; Listeria monocytogenes
  MIC: 1.25 µg/mL (≈ 2.42 µM)

## Ampicillin-Alexa430 [Amp-430]
[3]
  Kd: 18.5 µM

## Bocillin-650 [Boc-650]
[3]
  Kd: 2.8 µM

## NAcGlc-NAcMur-pentapeptide [M5]
Recombinant Lmo2812; Lmo2812, M5, NaPi, pH 7.0
  M4 (%): 16%
  M5 (%): 84%
Recombinant Lmo2812; Lmo2812, M5, Tris-Mg, pH 7.0
  M4 (%): 48%
  M5 (%): 52%
Recombinant Lmo2812; Lmo2812, M5, pH 4.5
  M4 (%): 3%
  M5 (%): 97%

## NAcGlc-NAcMur-tetrapeptide-NAcGlc-NAcMur-pentapeptide [D45]
Recombinant Lmo2812; up to 100 μg of protein, up to 18 h
  hydrolysis by purified Lmo2812: no such enzymatic activity was detected

## Nα,Nε-Diacetyl-Lys-D-Ala-D-Ala
[4]
  maximum DD-carboxypeptidase activity: 0.75 pmol/µg/min

## penicillin
[1]; [6]
  MIC: 0.08 µg/mL
L. monocytogenes EGD; [7]
  MIC: 0.16 µg/mL
[2]; [8]
  MIC: 0.16 µg/mL
